Values quoted from earlier work in patent publication US6901278B1, “Methods for reducing the risk of breast cancer in and improving the health of women” (priority 2002, dated 2005).

Conditions: following first-pass hepatic metabolism

C[C@]12CC[C@@H]3c4ccc(O)cc4CC[C@H]3[C@@H]1CC[C@@H]2O [Estradiol, 17β-estradiol]
bioavailable fraction of oral estradiol: 5%
